This note sets out measurements from ChEMBL document CHEMBL5729670, “Method for controlling hematophagous or sap-feeding arthropods” (2023).

This experiment in a line: thallium-flux assay: The thallium flux assay is an in vitro method of measuring conductance through a potassium ion channel. Potassium channels are also permeable to thallium ions. The modulation of a K+ channel will thus increase or decrease thallium ion flow through the channel and thus, alter the observed fluorescence of a thallium-specific indicator dye.Stably transfected T-Rex-HEK-293-AnKir1 cells were cultured overnight in 384-well plates in media containing DMEM, 10% dialyzed FBS, and 1 μg/mL tetracycline to induce channel expression. The next day the cell culture medium was replaced with a dye-loading solution containing assay buffer (Hanks Balanced Salt Solution with 20 mM HEPES, pH 7.3), 0.01% (w/v) Pluronic F-127 (Life Technologies, Carlsbad, Calif.), and 1.2 μM of the thallium-sensitive dye Thallos-AM (TEFlabs, Austin, Tex.). After 1 hr incubation at room temperature, the dye-loading solution was washed from the plates and replaced with 20 μL/well of assay buffer. The plates were transferred to a Hamamatsu Functional Drug Screening System 6000 (FDSS6000; Hamamatsu, Tokyo, Japan), where 20 μL/well of each of the test compounds in assay buffer was added and allowed to incubate with the cells for 20 min. […].

For `O=C(Cn1nc(C(F)(F)F)c2c1CCCC2)N1CCc2ccccc2C1`, the IC50 (as a rule, the concentration that inhibits the measured activity by half) was determined as 15 µM.
